# Patent US8796202B2, “Multi-valent poly-Ubl chain inhibitors and methods of use” (City of Hope, priority 2011, dated 2014)
# Entries after “also recorded” stand apart in the source; their conditions may differ. Non-standard residues stand in square brackets, D forms with d. Residues, ends and D or L forms follow the SMILES beside them. ξ: configuration not given here. *: point of attachment. Ile(3ξ) = CCC(C)[C@H](N)C(=O)O; Cbz = O=C(OCc1ccccc1)*
# What was measured:
# [1] = molecular target: SUMO-3 (Homo sapiens, UniProt P55854); assay: NMR (HSQC) chemical shift perturbation binding to SUMO-3; conditions: for chemical shift perturbation / binding to SUMO-3: HSQC, SUMO:ligand 1:3 or 1:10
# SUMO-3, sequence (P55854 1-92 limits assumed): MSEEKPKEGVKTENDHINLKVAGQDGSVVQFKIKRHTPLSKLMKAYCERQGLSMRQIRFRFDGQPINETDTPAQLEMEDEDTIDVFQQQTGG
# Method: NMR studies. All NMR samples contained 10 mM phosphate buffer (pH 7.0) in 90% H2O/10% D2O. NMR spectra were acquired at 25° C. on a Bruker […] NMR spectrometer. All chemicals were dissolved in DMSO. Heteronuclear Single Quantum Coherence (HSQC) spectra were acquired at SUMO:compound ratios of 1:3 or 1:10 for the top scored compounds from virtual ligand screening. Both SUMO-1 and SUMO-2 were examined for their interactions with the compounds. The HSQC spectra were acquired for the protein alone, the protein with addition of 2% DMSO, and the protein in complex with a compound and 2% DMSO. The dissociation constant Kd was estimated by titrating the compound to SUMO-2, followed by recording HSQC spectra at protein:compound ratios of 1:1, 1:2, 1:3, 1:4, 1:5, 1:6, 1:7 and 1:20.
# Interactions of the compounds shown in FIG. 4 with SUMO-1 and SUMO-3 were verified by NMR chemical shift perturbation analysis. These compounds generated negligible chemical shift perturbations (CSP) on SUMO-1, but much larger and specific chemical shift perturbations on SUMO-3 (FIGS. 5A and 6). […] Chemical shift perturbation was used to estimate the binding affinity of the representative compound, 333751, to SUMO-3 (20). […] This is not surprising given the much smaller size of the compound than the 10 amino acid residue SIM peptide. The SIM-binding groove on SUMO is very shallow and lacks a deep pocket (8). Since there is a lack of high affinity ligands to bind shallow surface pockets of proteins, it is unlikely that a high affinity small molecule ligand for the SIM binding surface of SUMO can be found.
# [2] = molecular target: T1, interaction between poly-SUMO-3 chain and the tandem-SIM peptide (Homo sapiens, UniProt P55854); assay: SIM pull-down (ELISA) competition, poly-SUMO-3 chains; format: binding
# T1 construct: made in house
# T1 sequence (P55854 1-92 limits assumed): as above
# T1 sequence (P55854 1-92 limits assumed): as above
# Method: Poly-SUMO chain formation. Poly-SUMO chains were synthesized by an in vitro SUMOylation reaction (4.375 μM GST-SUMO-3 and His-SUMO-3, 40 nM Ubc9 and E1, and 5 mM ATP in a 100 μl reaction). The reaction was carried out at 37° C. for 4 h and then diluted to 1 mL with phosphate buffered saline (PBS). Poly-SUMO chains were first separated from the His-SUMO-3 monomer by glutathione affinity chromatography. The eluted poly-SUMO chains were subsequently separated from the GST-SUMO-3 monomer by Ni-NTA chromatography. The eluted poly-SUMO chains were dialyzed and concentrated.
# (§1) Purification of GST-WT-SIM and GST-SC-SIM. GST-tagged wild-type (GST-WT-SIM) or scrambled SIM sequence (GST-SC-SIM) was subcloned into the pGex4T-S expression vector (Amersham) and over-expressed as an N-terminal GST fusion protein in Escherichia coli strain BL21 (DE3) (Invitrogen) at 37° C. in LB media. […]
# (§2) SIM pull-down. […] The plate was read at 450 nm by an ELISA reader after the reaction was stopped by addition of phosphoric acid. Quantifications of all SIM pull-downs were scaled by measurement of GST-WT-SIM pull-down (100%) and GST-SCSIM pull-down (0%). […]
# The SIM and control peptides were used in pull-down assays to determine the inhibitory effects of the conjugation of inhibitor to AuNPs. […] The amount of SUMO pulled down by the SIM peptide was detected by enzyme-linked immunosorbent assay (ELISA) in an EIA microtiter plate. […]
# [3] = molecular target: interaction between SIM and SUMO-1 (Homo sapiens, UniProt P63165); assay: SIM pull-down (ELISA) competition, SUMO-1 monomer; format: binding
# interaction between SIM and SUMO-1, sequence (P63165 1-97 limits assumed): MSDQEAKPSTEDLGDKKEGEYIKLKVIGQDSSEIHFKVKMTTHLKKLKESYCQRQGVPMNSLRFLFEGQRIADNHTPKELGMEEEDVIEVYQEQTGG
# Method: as §1, with “media. Once the OD A595 nm reached 0.6, isopropyl 1-thio-[…] (IPTG; 1 mM) was added to the media and the cells were grown for an additional 4 h at 37° C.” for “media.”
# as §2
# (§3) The SIM and control peptides were used in pull-down assays to determine the inhibitory effects of the conjugation of inhibitor to AuNPs. […] The amount of SUMO pulled down by the SIM peptide was detected by enzyme-linked immunosorbent assay (ELISA) in an EIA microtiter plate. […] Based on the concentrations of SUMO chains and the experimental design, it was determined that the IC50 value is likely larger than the average Kd value of the complex between AuNP and SUMO chains.
# [4] = molecular target: interaction between SIM and SUMO-3 (Homo sapiens, UniProt P55854); assay: SIM pull-down (ELISA) competition, SUMO-3 monomer; format: binding
# interaction between SIM and SUMO-3, sequence (P55854 1-92 limits assumed): as the sequence (P55854 1-92 limits assumed) above
# Method: as §1, with “media. Once the OD A595 nm reached 0.6, isopropyl 1-thio-[…] (IPTG; 1 mM) was added to the media and the cells were grown for an additional 4 h at 37° C.” for “media.”
# as §2, §3
# [5] = system: all SUMO isoforms; conditions: reference (7), cited from earlier work
Compound,chemical shift perturbation / binding to SUMO-3 [1],affinity lower than that between the PIASx SIM and SUMO-2 ([1]; compared with PIASx SIM peptide),Kd ([1]; estimated from chemical shift change vs ligand:protein ratio) [µM],inhibition of poly-SUMO-3 chain / SIM interaction [2],inhibition of SUMO-1 monomer / SIM peptide interaction [3],inhibition of SUMO-3 monomer / SIM peptide interaction [4],higher affinity for all SUMO isoforms than other characterized SIM sequences [5] [fold],Kd ([5]; read-out: dissociation constants for all SUMO isoforms) [µM]
CCC(C)[C@H](NC(=O)OCc1ccccc1)C(=O)N[C@@H](CC(C)C)C(=O)O (stereo partly drawn) [compound 333751] (Cbz-[Ile(3ξ)]-Leu-OH),among the strongest; also recorded: induced chemical shift perturbation on the same surface of SUMO-3 and to a similar extent,more than 200 fold,1200 ± 400,–,–,–,–,–
CCC(C)[C@H](NC(=O)/C=C/c1ccc(NC(=O)CCS)cc1)C(=O)N[C@@H](CC(C)C)C(=O)O (stereo partly drawn) [derivative 2],induced chemical shift perturbation on the same surface of SUMO-3 and to a similar extent,–,–,nor did it inhibit poly-SUMO chain and SIM interactions,not significantly inhibitory,not significantly inhibitory,–,–
KVDVIDLTIE [PIASx SIM],–,–,–,–,–,–,~10,4 to 8
